From a melting point compilation (Tetko et al.; mined from patent text by program, amines drawn as free bases though some values may be those of a salt)

In the case of `CCC(CC(=O)NC(=O)OC(C)(C)C)Nc1ccc(C)cc1` (stereo not given), the melting point was 96 to 97 °C.
`CCCCC1=N/C(=C\c2c[nH]c3ncc(Cl)cc23)C(=O)N1C` gave a melting point of 295 to 300 °C.
`CCC(CC)Nc1c([N+](=O)[O-])cc(C)c(COC(=O)CCl)c1[N+](=O)[O-]` gave a melting point of 45 to 48 °C.
Compound `CCOC(=O)C(NS(=O)(=O)c1ccc(C)cc1)C1CCOC1C#N` (stereo not given) has a melting point of 105 to 107 °C.
`O=C(Nc1ccc2ccc(Cl)nc2n1)c1ccc2ccccc2n1` showed a melting point of 260 °C.
Compound `Clc1ccc(-c2nsc3cc(OCCCCBr)ccc23)cc1` has a melting point of 68 to 69 °C.
With `O=Cc1cc(Cc2ccccc2)ccc1O` the melting point was 78 to 79 °C.
For `CN1C(=O)C(NC(=O)CCc2ccccc2)N=C(N(C)C2CCCCC2)c2ccccc21` (stereo not given), the melting point was 167 to 168 °C.
`N#Cc1ccc(-c2ccc(SC3SCC(O)C(O)C3O)cc2)cc1` (stereo not given) showed a melting point of 168 °C.
In the case of `Nc1ccc2ccc(OCc3ccc4ccccc4n3)cc2c1`, the melting point was 164 to 166 °C.
`COC1=Cc2ccc(Cl)cc2C(O)(C2CCN(C)CC2)c2ccsc21` (stereo not given) gave a melting point of 200 to 202 °C.
With `COC(=O)CCC(=O)Nc1cccnc1` the melting point was 78 to 79 °C.
For `CC(Cl)C(=O)c1ccc2c(c1)CCCC(=O)N2` (stereo not given), the melting point was 230 °C.
Work on `COC(=O)c1ccccc1C(=O)OCC1CN(C(=O)Oc2ccccc2)CCC1c1ccc(F)cc1` (stereo not given) yielded a melting point of 139 to 141 °C.
`CCc1cc2c(c(Cl)cc(=O)n2Cc2ccc(C(=O)O)cc2)c(CC)n1` gave a melting point of 250 to 253 °C.
For `COc1ccc(NC(=O)c2ccc(C(C)(C)C)cc2)c([N+](=O)[O-])c1`, the melting point was 103 to 107 °C.
In the case of `CC1C(=O)C(c2ccc(S(C)(=O)=O)cc2)=C1c1ccccc1` (stereo not given), the melting point was 121 to 122 °C.
In the case of `O=C1NC(=O)C(Cc2ccc(OCc3coc(-c4ccccc4)n3)cc2)S1` (stereo not given), the melting point was 188 to 189 °C.
Compound `CC(=O)OCCS(=O)(=O)C(F)(F)C(O)(Cn1cncn1)c1ccc(F)cc1F` (stereo not given) has a melting point of 77 to 80 °C.
Compound `COc1ccc(C=CBr)cc1O` has a melting point of 64 to 66 °C.
Work on `COc1cccc(-c2cn(C)cc(-c3cccc(C(F)(F)F)c3)c2=O)c1` yielded a melting point of 113 to 115 °C.
Work on `CCCc1c(OCCSc2nc3ccc(C(=O)O)cc3[nH]2)ccc(C(C)=O)c1O` yielded a melting point of 108 to 110 °C.
In the case of `CC1=CC(c2cccc(Cl)c2)C2=C(CCCC2=O)N1` (stereo not given), the melting point was 201 to 203 °C.
Compound `CC(=O)N1CCC(Oc2ccccc2N2CCCCC2)CC1` has a melting point of 69 to 70 °C.
`Cc1noc(NS(=O)(=O)c2ccsc2-c2ccccc2)c1Br` gave a melting point of 86 to 89 °C.
In the case of `CCN(CC)Cc1ccc(CN2C(=O)COc3ccc(C=C4SC(=O)NC4=O)cc32)cc1`, the melting point was 244 to 246 °C.
With `CCCCCc1c(C=O)sc2cc(OC)ccc12` the melting point was 44 to 46 °C.
`C=CCCn1c(C(=O)c2cc(C)cc(C#N)c2)c(C(C)C)c(=O)[nH]c1=O` showed a melting point of 133 to 134 °C.
Compound `CCCCCCCN(C[C@H]1CCC[C@H](CN(CCCCCCC)C(=O)Nc2ccc(N(C)C)cc2)C1)C(=O)Nc1ccc(N(C)C)cc1` (relative stereo) has a melting point of 121 to 126 °C.
`CCOC(=O)c1cc2cc(OCCCCCBr)ccc2o1` gave a melting point of 31 °C.
`CC(C)(C)NS(=O)(=O)c1cccnc1F` gave a melting point of 95 to 97 °C.
With `Cc1c(Sc2ccccc2S(C)(=O)=O)c2cc(NS(C)(=O)=O)ccc2n1CC(=O)O` the melting point was 227 to 230 °C.
Work on `Cc1nnc(C(C)C)n1C1CC2CCC(C1)N2CCC(NC(=O)C1CCC(F)(F)CC1)c1ccc(NC(=O)COCC(=O)NCCCCCCCN)cc1` (stereo not given) yielded a melting point of 100 to 102 °C.
Work on `CC(C)(C)C1CC=C(c2cc(C(F)(F)F)cc3[nH]c(N4CCN(c5ncccc5C(F)(F)F)CC4)nc23)CC1` (stereo not given) yielded a melting point of 96 to 97.7 °C.
`CCCNC(=O)Oc1ccc(C(O)(CC)c2ccc(Cl)cc2)cc1` (stereo not given) showed a melting point of 71 to 72 °C.
Compound `Cc1nc(N2CCCC2C)c2nc(-c3ccccc3)cc-2[nH]1` (stereo not given) has a melting point of 219 to 221 °C.
`COC(=O)CCc1cn(Cc2ccc(C(=O)O)cc2OC)c2cc(C(=O)NCC3CCCC3)ccc12` showed a melting point of 181 to 182 °C.
With `COC(=S)N=C(N)SC` the melting point was 75 to 76 °C.
In the case of `CCOC(=O)c1c(Cl)nn(C)c1S(N)(=O)=O`, the melting point was 121 to 123 °C.
For `CS(=O)c1ccc(-c2nn(CC3CC3)c(=O)cc2-c2ccc(F)cc2)cc1` (stereo not given), the melting point was 133 to 134 °C.
Work on `Cc1ccccc1CCCc1c(C)nc(N)nc1N` yielded a melting point of 213 to 215 °C.
`Cc1nc2cnccc2n1-c1ccc2c(c1)CC(C#N)C2` (stereo not given) showed a melting point of 174 to 176 °C.
`Cc1cc(-c2c(F)cc3c(=O)c(Cc4ccc(O)cc4)cn(C4CC4)c3c2F)cc(C)n1` gave a melting point of 258 to 259 °C.
For `COC1(c2ccc(C(C)C)cc2OCc2ccccc2)C(=O)c2ccccc2C1=O`, the melting point was 140 to 144 °C.
With `C=CCN(CC=C)c1nc(NC(=O)OCc2ccccc2)n2oc(=O)nc2n1` the melting point was 171 to 173 °C.
Compound `CCN(CC)CCCNc1nnc(COC)c2c1cc1n2CCCC1` has a melting point of 145 to 147 °C.
`CCCn1nc(C#N)cc1CC(C)(C)NC(=O)OC(C)(C)C` showed a melting point of 115 to 116 °C.
Compound `CCCCCC(=O)NCc1nc(-c2ccc3c(c2)Nc2ccccc2S3)cs1` has a melting point of 192 to 194 °C.
Compound `O=P(O)(CCc1ccccc1)CCc1ccccc1` has a melting point of 84 to 87 °C.
Work on `O=C(NC1CN(Cc2ccccc2)CCN(Cc2ccccc2)C1)c1n[nH]c2ccccc12` yielded a melting point of 115 to 116 °C.
`C#Cc1ccc(N(c2ccc(C#C)cc2)c2ccc(C#C)cc2)cc1` showed a melting point of 115 °C.
Work on `COc1ccc(-n2c(-c3sc(NC(=O)c4ccccc4)nc3-c3ccccc3)nc3ccccc3c2=O)cc1` yielded a melting point greater than 275 °C.
In the case of `COC(=O)CCNCC1CC2c3cc(C(C)(C)C)cc4[nH]cc(c34)CC2N(C)C1` (stereo not given), the melting point was 153 to 157 °C.
Work on `O=C(O)c1ccc(Oc2nccs2)c(F)c1` yielded a melting point of 133 to 134 °C.
For `COc1ccc(-c2ccc(C(N)=O)c(Cl)c2)cc1`, the melting point was 207 to 208 °C.
`CC1CC(=O)N(c2cc(Cc3n[nH]c(=O)c4ccccc34)ccc2F)C1=O` (stereo not given) gave a melting point of 171 to 172 °C.
For `CC(=O)OC(C)OC1=C(C(=O)Nc2cccc(C)n2)N(C)S(=O)(=O)c2ccccc21` (stereo not given), the melting point was 190 to 191 °C.
`COc1ccc(C(=O)N2CCc3cc(O)c(OC)cc3C2)cc1` showed a melting point of 173 to 174 °C.
In the case of `CCOC(=O)c1ccc(C#Cc2ccc3c(c2)C(=O)CC(C)(C)S3)cc1`, the melting point was 102 to 104 °C.
In the case of `COC(=S)N(C)C[C@@H]1CN(c2cc(F)c(N3CC(=O)N(C)C3)c(F)c2)C(=O)O1`, the melting point was 130 °C.
With `Cn1cc(C#N)c(-c2ccc([N+](=O)[O-])o2)n1` the melting point was 176 to 178 °C.
Work on `C#Cc1c[nH]c2ncnc(N3CCCCC3)c12` yielded a melting point of 179 to 181 °C.
Compound `CC1(C)NC(=O)N(CC(CS(=O)(=O)c2ccc(-c3cccc(CC#N)c3)cc2)N(O)C=O)C1=O` (stereo not given) has a melting point of 186 to 189 °C.
Compound `CCN(CC)c1ccc(C(O)C#Cc2ccc(C(=O)O)cc2)cc1C(C)C` (stereo not given) has a melting point of 145 °C.
Work on `CCCC(=O)Nc1ccc(OCc2nc3cc(F)ccc3s2)cc1` yielded a melting point of 201 to 202 °C.
With `COC(=O)C(C)C1CCC2C3CC=C4CC(OC(C)=O)CCC4(C)C3CCC12C` (stereo not given) the melting point was 140 to 142 °C.
`CN(C)c1ccc(C=NO)c([N+](=O)[O-])c1` showed a melting point of 140 to 143 °C.
`C=C(c1ccccc1)S(=O)(=O)c1ccc(C(C)(C)C)cc1` showed a melting point of 99 °C.
With `CN(C)C=NC(C#N)=CN(C)C` the melting point was 78 to 81 °C.
Compound `OCCCCCCCCCCCOc1ccc(-c2nc(-c3ccccc3)nc(-c3ccc(OCCCCCCCCCCCO)cc3O)n2)c(O)c1` has a melting point of 126 to 135 °C.
`Nc1n[nH]c(-c2ccco2)n1` gave a melting point of 204 to 206 °C.
Compound `N#Cc1cnn2c(C(F)(F)F)cc(-c3ccc(C(F)(F)F)cc3)nc12` has a melting point of 176 °C.
`COc1ccccc1COC(=O)C(O)CNCCc1ccc(OC)c(OC)c1` (stereo not given) gave a melting point of 79.5 to 82.5 °C.
In the case of `CC(C)c1cc(C(C)C)c(CC(=O)NS(=O)(=O)Oc2c(C(C)C)cc(NS(=O)(=O)c3cccc4c(N(C)C)cccc34)cc2C(C)C)c(C(C)C)c1`, the melting point was 103 to 105 °C.
With `CCOC(=O)c1[nH]nc(-c2ccc(C#N)cc2)c1C` the melting point was 148 °C.
Compound `O=C1CCC(N2Cc3c(OCc4ccc(Cn5cnc(C(F)(F)F)c5)cc4)cccc3C2=O)C(=O)N1` (stereo not given) has a melting point of 148 to 150 °C.
Compound `O=C1CCc2ccc(OCc3ccccc3)cc21` has a melting point of 99 to 101 °C.
`Cc1c(OCC2CO2)noc1-c1ccccc1` (stereo not given) gave a melting point of 87 to 88 °C.
`Cc1cc(O)c(S(=O)CC2CCCCC2)c(=O)o1` (stereo not given) gave a melting point of 132 to 134 °C.
In the case of `C[C@@H](O[Si](C)(C)C(C)(C)C)[C@H]1C(=O)N([Si](C)(C)C(C)(C)C)[C@@H]1CC=O`, the melting point was 115 to 116 °C.
With `CC(=O)NCC(C)(C)c1ccc2nc(C)[nH]c2c1` the melting point was 198 to 201 °C.
In the case of `CNC(=O)/C(=N/OC)c1ccccc1Oc1cc(C)cc(C)c1`, the melting point was 90 to 91 °C.
`C=C(C(=O)O)c1cc(-c2cc3c(cc2C)C(C)(C)CCC3(C)C)ccc1OCCC` showed a melting point of 125 to 126 °C.
`O=C(O)CCC(=NO)c1ccc(-c2ccc(C(F)(F)F)cc2)cc1` gave a melting point of 134 to 136 °C.
`Nc1nc(N)nc(-c2cccc(S(N)(=O)=O)c2)n1` showed a melting point greater than 290 °C.
Compound `Fc1ccc2[nH]cc(Cc3cccnc3)c2c1` has a melting point of 109 to 112 °C.
Compound `COC(=O)Nc1cc(Oc2ccc3c(C(=O)Nc4ccc(CN5CCN(C)CC5)c(C(F)(F)F)c4)nccc3c2)ncn1` has a melting point of 203 to 205 °C.
In the case of `Cn1ncc2c(=O)n3c(nc21)SC(C)(C)C3`, the melting point was 188 °C.
`Nc1nc2ccccc2c2c1nc1n2OCC1` showed a melting point greater than 300 °C.
For `COc1ccc(C(F)(F)F)cc1-c1cccn2nc(Nc3ccc4c(c3)CCN(C(=O)OC(C)(C)C)C4)nc12`, the melting point was 86 to 90 °C.
For `Cn1c(O)nc2cc3c(cc21)C(C)(C)C(=O)N3`, the melting point was 364 to 367 °C.
Compound `CC(C)(C)OC(=O)N1CCCC(CCN2C(=O)C3(COc4cc5c(cc43)OCO5)c3ccccc32)C1` (stereo not given) has a melting point of 64 to 67 °C.
`CNC(=O)c1ccccc1Nc1nc(Nc2ccc3c(c2)CCCC(=O)N3C)ncc1Br` gave a melting point of 238 to 240 °C.
`CCON=Cc1cc(-n2c(=O)cc(C(F)(F)F)n(C)c2=O)c(Cl)cc1Cl` gave a melting point of 140 to 143 °C.
`O=C(Nc1cc(F)cc(F)c1)c1cc(Br)ccc1O` gave a melting point of 259 to 261 °C.
In the case of `Cc1cc(Cl)cc(Cl)c1CNc1c(N[C@H](C)C(C)(C)C)c(=O)c1=O`, the melting point was greater than 300 °C.
`CC1CC(C)CN(C(=O)c2ccccc2)C1` (stereo not given) gave a melting point of 107 to 109 °C.
With `CCCCSC(=S)N1Cc2[nH]c3ccccc3c2CC1C(=O)O` (stereo not given) the melting point was 163 to 164 °C.
`COc1cc2c(=O)c(C)cn3c4cc(Br)ccc4c(c1)c23` showed a melting point of 201 to 204 °C.
In the case of `Cn1c2ccc(Cl)cc2c(=O)n2nc(C(N)=O)cc12`, the melting point was greater than 360 °C.
